Experimental data from patent US12636260B2, “Application of α-asarone in preparation of medicine for preventing or treating hemorrhagic stroke” (CHENGDU XINRUI TAIKANG TECHNOLOGY CO., LTD., priority 2021, dated 2026).

Tests used:
Format in all cases: in vivo, rat
SAH rats [1] = assay: Morris water maze and brain tissue atrophy of SAH rats in recovery phase
Description: Morris water maze was used to evaluate the long-term spatial perception and memory ability of rats in each group, and was performed after the survival observation, i.e., 15 to 19 days after SAH. The water maze was a circular pool with a diameter of 150 cm and a depth of 60 cm. Before the experiment, warm water (24±2)° C. was filled to a depth of 30 cm and colored black with ink. The pool was equally divided into four quadrants, and different signs were pasted on the walls of different quadrants to indicate the difference. A transparent platform with a diameter of 10 cm and a height of 28 cm was placed in the center of one quadrant, and was 2 cm beneath the water. Rats were released from the designated quadrant according to the experimental guidelines. On day 1 to 4, rats were successively released into water from four corresponding quadrants with a 10-minute interval. If the rat found the platform within 60 seconds, it was allowed to remain there for 10 seconds; if not, it was guided to the platform with a rod and allowed to stand there for 10 seconds. On day 5, the platform was removed and the rats were allowed to swim freely for 60 seconds. The escape latency, swimming speed and dwelling time on the target quadrant were recorded using a computerized tracking system (Noldus Ethovision, Tacoma, WA, USA).

SAH rats [2] = assay: Long-term survival rate of SAH rats; settings: for Survival rate / 24-hour mortality rate: 2 hours after modeling then once a day for 14 days
Description: The experimental materials, grouping and modeling methods were the same as those in effect embodiment 1. The rats were immediately administrated 2 hours after SAH modeling according to the grouping administration protocol and continued to be administrated once a day for 14 days thereafter, and the survival of the rats was observed and recorded for 14 days. The mortality rate within 24 hours in group S was as high as 53.8%.

SAH rats [3] = assay: Glutamate and GABA content in brain tissue, SAH rats; settings: 12 to 24 hours after operation, group M
Description: The rats were deeply anesthetized, and decapitated to collect the brain at 12-24 hours after modeling. Then about 60 to 120 mg of brain cortex on the hemorrhagic side were weighed, homogenized with 10 times the volume of ice-cold centrifuge buffer for biochemical detection, homogenized for 10 min in an ice bath, and centrifuged at 4° C. for 30 minutes (14,000 rpm/min). The contents of glutamate and GABA in the supernatant were detected according to the instructions of glutamate content detection kit and rat GABA Elisa kit.

SAH rats [4] = assay: Short-term neurological function of SAH rats (Garcia score, beam balance test, bleeding score); settings: SAH model; for Beam balance score / Garcia score: 24 hours after modeling
Description: Experimental grouping: At 2 h after endovascular perforation or collagenase VII injection, Zea Longa score was used to evaluate the neurological function of rats. Successful model rats were randomly divided into groups for administration.
All groups were administrated through the tail vein injection except for group N administrated intraperitoneally.
The rats were fasted for 12 hours before operation, and were anesthetized with 4% isoflurane, and kept anesthetized with 2% isoflurane. The animals were fixed in the supine position with the body temperature maintained at about 37° C. A traditional skin incision of the neck was performed along the midline. The muscle and fascia were separated along the medial margin of the sternocleidomastoid muscle to expose the right side, then the common carotid artery (CCA), external carotid artery (ECA) and internal carotid artery (ICA) were bluntly separated with disposal lines placed at CCA proximal end, ICA and ECA for use. The CCA proximal end and the ECA were ligated, and the ICA was temporarily clamped with an arterial clip, and then a small hole was poked with a needle at about 4 mm from the bifurcation at the CCA. A nylon suture was introduced into the CCA from the hole and advanced through the ICA after releasing the arterial clip, and the suture was inserted intracranially. […] The suture moved forward for roughly 2 mm to perforate the artery followed by instant withdraw, and then the suture was completely removed and the ICA was ligated. Finally, the incision was cleaned with normal saline and sutured. The sham group conducted the same procedure as the model group except for the perforation. After awakening from anesthesia, the animals were raised normally.
The SAH severity was grading after rat's euthanasia, i.e., completing the evaluation of short-term neurological function. The score was determined by the amount of subarachnoid hemorrhage on the surface of basal cistern and brain tissue which was divided into six parts by the Willis ring composed of basilar artery, anterior cerebral artery, internal carotid artery, posterior cerebral artery and posterior communicating artery. Each part was graded from 0 to 3 points according to the amount of subarachnoid blood clots, i.e., 0 points: no subarachnoid blood; 1 point: a small amount of subarachnoid blood; 2 points: moderate amount of blood clots with recognizable arteries; 3 points: blood clots cover all arteries in the area. All 6 part scores were added up for a total of 18 points. According to the final score, SAH hemorrhage severity could be divided into mild subarachnoid hemorrhage (0 to 7 points), moderate subarachnoid hemorrhage (8 to 12 points), and severe subarachnoid hemorrhage (13 to 18 points). The moderate to severe SAH models were selected for statistical analysis (score≥8 points).
According to Zea Longa's neurological function score, the rats were scored 2 hours after the operation when they were awake from anesthesia. Successful model rats with a score of 1 to 3 points were enrolled in the group: • 0 points: no neurological deficits with normal activity; • 1 point: inability to fully extend the contralateral forepaw; • 2 points: the animal appears to turn in circles when crawling; • 3 points: the animal tends to lean to the hemiplegic side; • 4 points: the animal cannot walk spontaneously or loses consciousness. 1.4 Assessment of Short-Term Neurological Function
The neurological function of rats was comprehensively evaluated with Garcia score and beam balance test 24 hours after modeling. The criteria of Garcia score are shown in Table 1, which evaluates the movement, sensation, climbing and limb symmetry of the rats with the score range of 3 to 18 points. The lower the score, the more severe the neurological injury. The criteria of the beam balance test are shown in Table 2, which evaluated the proprioception and body coordination of rats with the score range of 0 to 6 points. […]

ICH rats = assay: Short-term neurological function of ICH rats (Garcia score, beam balance test); settings: ICH model, 24 hours after modeling; group O, α-asarone emulsion oral administration 40 mg/kg
[5] = group H, α-asarone emulsion injection 30 mg/kg tail vein
[6] = group L, α-asarone emulsion injection 7.5 mg/kg tail vein
[7] = group M, α-asarone emulsion injection 15 mg/kg tail vein

With `C/C=C/c1cc(OC)c(OC)cc1OC` [α-asarone, trans-2,4,5-trimethoxy-1-propenylbenzene] the “escape latency during the training period” value (SAH rats [1]; Morris water maze, 15 to 19 days after SAH, group M, vs group S) was “significantly decreased”, the swimming speed (SAH rats [1]; Morris water maze, group M vs group S (P<0.05)) was “significantly faster” and the “time in the target quadrant, spatial probe test” value (SAH rats [1]; Morris water maze, group M, vs group S) was “notably prolonged”. The brain atrophy (SAH rats [1]; SAH rats after long-term administration, group M) was “significantly rescued”, the “survival time (vs group S)” value (SAH rats [2]; 14 days, groups M, H, O and N) was “prolonged” and the Survival rate (SAH rats [2]; Day 14, group H, α-asarone emulsion injection 30 mg/kg tail vein) was 55.6%. For the same molecule, the Survival rate (SAH rats [2]; Day 14, group L, α-asarone emulsion injection 7.5 mg/kg tail vein) was 37.5%, the Survival rate (SAH rats [2]; Day 14, group M, α-asarone emulsion injection 15 mg/kg tail vein) was 61.5% and the Survival rate (SAH rats [2]; Day 14, group O, α-asarone emulsion oral administration 40 mg/kg) was 62.5%. It also gave a 24-hour mortality rate (SAH rats [2]; [5]) of 22.2%, a 24-hour mortality rate (SAH rats [2]; [6]) of 50.0% and a 24-hour mortality rate (SAH rats [2]; [7]) of 23.1%. For the same molecule, the 24-hour mortality rate (SAH rats [2]; group O, α-asarone emulsion oral administration 40 mg/kg) was 25.0%, the “mortality rate within 24 hours (vs group S)” value (SAH rats [2]; groups M, H, O and N) was “significantly reduced” and the “GABA content in the hemorrhagic brain tissue” value (SAH rats [3]) was “significantly reduce”. For the same molecule, the “glutamate content in the hemorrhagic brain tissue” value (SAH rats [3]) was “significantly reduce”, the Beam balance score (SAH rats [4]; [5]) was 3.22 and the Garcia score (SAH rats [4]; [5]) was 11.79. It also gave a Beam balance score (SAH rats [4]; [6]) of 3.30, a Garcia score (SAH rats [4]; [6]) of 10.82 and a Beam balance score (SAH rats [4]; [7]) of 2.70. The Garcia score (SAH rats [4]; [7]) was 12.29, the “curative effect compared with nimodipine (group N) and vinpocetine (group V)” value (SAH rats [4]; group M, 15 mg/kg) was “better” and the Beam balance score (ICH rats) was 3.41. It also gave a Garcia score (ICH rats) of 10.17.
